Like-named read-outs stand apart in the source and are kept apart here. One block for each compound: values may come before it.
Legend:
[1] = molecular target: T1, protein;farnesyl transferase (Oryctolagus cuniculus, UniProt G1SFC8+G1T7D9); assay: Inhibition of protein;farnesyl transferase using C-terminal octapeptide pre-p21N-ras coupled to Sepharose beads as substrate; format: biochemical, rabbit; design: substrate N-ras C-terminal octapeptide on Sepharose beads
[2] = molecular target: T2, squalene synthase (Rattus norvegicus, UniProt Q02769); assay: Inhibition of squalene synthase in rat liver microsomal preparations; format: biochemical; settings: at dosage amounts inhibiting p21ras farnesyl transferase
T2 construct: squalene synthase in rat liver microsomal preparations; from tissue; host or cells: rat liver microsomes
T2 sequence (Q02769 1-416): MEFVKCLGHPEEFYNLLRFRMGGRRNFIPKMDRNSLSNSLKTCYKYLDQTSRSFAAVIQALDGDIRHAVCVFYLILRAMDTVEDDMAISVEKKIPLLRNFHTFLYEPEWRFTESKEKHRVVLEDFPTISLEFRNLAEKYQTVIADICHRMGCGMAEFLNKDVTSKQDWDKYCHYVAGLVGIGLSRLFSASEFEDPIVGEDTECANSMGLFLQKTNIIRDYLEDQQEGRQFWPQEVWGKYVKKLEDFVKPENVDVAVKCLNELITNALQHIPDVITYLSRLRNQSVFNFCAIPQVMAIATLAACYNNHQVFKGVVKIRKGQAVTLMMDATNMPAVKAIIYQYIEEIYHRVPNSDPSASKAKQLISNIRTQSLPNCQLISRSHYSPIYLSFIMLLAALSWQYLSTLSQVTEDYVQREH

[3] = molecular target: T1, protein;farnesyl transferase; assay: Inhibition of farnesylation of H-ras protein (p21ras precursor) by farnesyl:protein transferase in rabbit reticulocyte lysate, [3H]-FPP incorporation; settings: different amounts of compound
Target sequence in this assay (G1T7D9 entry or part of it, one chain of several): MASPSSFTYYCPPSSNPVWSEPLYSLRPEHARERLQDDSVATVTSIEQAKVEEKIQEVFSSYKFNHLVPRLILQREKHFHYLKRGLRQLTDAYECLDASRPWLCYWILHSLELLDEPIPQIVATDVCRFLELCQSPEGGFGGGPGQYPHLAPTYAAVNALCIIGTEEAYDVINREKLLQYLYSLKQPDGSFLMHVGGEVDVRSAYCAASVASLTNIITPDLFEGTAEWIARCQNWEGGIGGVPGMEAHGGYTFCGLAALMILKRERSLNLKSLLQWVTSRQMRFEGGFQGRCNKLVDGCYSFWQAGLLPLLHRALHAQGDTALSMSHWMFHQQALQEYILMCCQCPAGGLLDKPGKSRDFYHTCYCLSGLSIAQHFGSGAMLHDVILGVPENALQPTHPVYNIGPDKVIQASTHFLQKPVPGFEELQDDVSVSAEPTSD

[4] = system: farnesylation of p21ras in Rat-1.H-ras13 cells; format: cell-based, rat cells overexpressing human p21Ha-ras; settings: 24 h
Method: It was shown now that compound 3 acts as a protein: farnesyl transferase inhibitors in cultured cells. For this purpose Rat-1.H-ras13 cells, which overexpress human p21^Ha-ras (Downword J. et al., Proc. Natl. Acad. Sci. U.S.A. 1988; 85; 5774-5778), were used. These cells were incubated with [^3 H]-mevalonate and 0, 0.1, 1, 10 and 100 μM of compound 3 for 24 h in DMEM containing 1% human serum albumin and 2.5 μM of simvastatin.
Thereafter cells were lysed in 300 μl PBS supplemented with 1% Triton X-100, 0.5% sodium deoxycholate, and the protease inhibitors phenylmethylsulfonylfluoride (1 mM), leupeptine (50 μg/ml), pepstatin A (50 μg/ml) and trasylol (300 K.I.U./ml), and p21^ras was collected on immobilized monoclonal antibody Y13-259 (Osterop A.P.R.M. et al., J. Biol. Chem. 1992; 267; 14647-14653). After separation by SDS polyacrylamide gel electrophoresis the [^3 H]-labelled polypeptides were visualized by autoradiography.

[5] = system: Rat-1.H-ras13 cells; assay: Inhibition of cell proliferation of transformed Rat-1.H-ras13 cells (cell count, trypan blue exclusion); format: cell-based; settings: 10 days
Method: Cells were cultured for 10 days in DMEM supplemented with 10% fetal calf serum in the presence of 0, 25 or 100 μM of compound 3. At day 0, cells were plated in monolayer culture at 5×10^3 cells per well (6 well plates). On day 3 and 7, cells were re-fed with the same medium. On day 10, cells were harvested by trypsinization and counted using a standard hemocytometer chamber. Values are the mean of triplicate countings of duplicate incubations. In these ten days control cells had been proliferated exponentially to 1.94×10^6 ±0.04×10^6 cells per well.

[6] = read-out: IC50, inhibition of protein;farnesyl transferase; octapeptide pre-p21N-ras on Sepharose beads as substrate

IC50 ([1]; octapeptide pre-p21N-ras on Sepharose beads as substrate; read-out: IC50, inhibition of protein;farnesyl transferase): 147000 ± 37000 nM
Compound: CC(C)=CCCC(C)=CCCC(C)=CCC(CC=C(C)CCC=C(C)CCC=C(C)C)(P(=O)(O)O)P(=O)(O)O [bisfarnesylmethylenebis(phosphonic acid), reference compound]

Compound: CC(C)=CCCC(C)=CCCC(C)=CCCP(=O)(O)OP(=O)(O)O [compound 1, farnesylmethylphosphonophosphate]
inhibition of squalene synthesis at amounts that inhibit p21ras farnesyl transferase, result in words [2]: without inhibiting squalene synthesis
IC50 [1, 6]: 930 ± 230 nM
enzyme activity (farnesyl:protein transferase), result in words [3]: concentration-dependently decreased

Compound: CC(C)=CCCC(C)=CCCC(C)=CCP(=O)(O)OP(=O)(O)O [compound 3, farnesylphosphonophosphate]
inhibition of squalene synthesis at amounts that inhibit p21ras farnesyl transferase, result in words [2]: without inhibiting squalene synthesis
radioactivity measured in p21ras / farnesylation of ras protein, result in words ([4]; 100 μM): no radioactivity was measured, showing that the farnesylation of the ras protein was totally blocked
IC50 ([4]; DMEM with 1% human serum albumin and 2.5 μM simvastatin, read-out: IC50, inhibition of farnesylation of p21ras in cells): 1000 to 10000 nM
radioactivity incorporated into p21ras, result in words ([4]; increasing concentrations (0.1, 1, 10, 100 μM)): less radioactivity was incorporated into p21^ras
non-viable cells, trypan blue exclusion ([5]; 0, 25 or 100 μM): no non-viable cells
inhibition of proliferation of transformed cells, result in words ([5]; 25 and 100 μM): concentration-dependently inhibits the proliferation of transformed cells in culture
inhibition at 25 µM ([5]; Rattus norvegicus, 240 h, 25 μM, read-out: reduction in cell numbers (of control values)): 32.5%
inhibition at 100 µM ([5]; Rattus norvegicus, 240 h, 100 μM, read-out: reduction in cell numbers (of control values)): 49.5%
IC50 [1, 6]: 340 ± 50 nM
enzyme activity (farnesyl:protein transferase), result in words [3]: concentration-dependently decreased

Compound: CC(C)=CCCC(C)=CCCC(C)=CCOCP(=O)(O)OP(=O)(O)O [compound 5, farnesyloxymethylphosphono-phosphate]
IC50 [1, 6]: 520 ± 70 nM

Compound: CC(C)=CCCC(C)=CCCC(C)=CCC(OCP(=O)(O)O)P(=O)(O)O (stereo not shown) [compound 6, farnesyl(phosphono)methoxymethylphosphonic acid]
IC50 ([1]; read-out: IC50, inhibition of protein;farnesyl transferase; octapeptide pre-p21N-ras on Sepharose beads as substrate; unit μm [sic]): 580 ± 440 nM

From patent publication US5827838A, “Method for the treatment of diseases related with protein isoprenylation” (priority 1994, dated 1998)
